Tests used:
[1] = target: T1, myeloperoxidase (Homo sapiens (Human), UniProt P05164); test: MPO Peroxidation Assay (Amplex Red Assay); type: biochemical; conditions: potency range class
Procedure: MPO Peroxidation Assay (Amplex Red Assay)
MPO peroxidation activity was measured in 100 mM KPi (pH 7.4) by utilizing the non-fluorescent reagent Amplex Red (Invitrogen Cat. #A12222) which can be oxidized to the highly fluorescent resorufin. Amplex Red is oxidized by the peroxidase action of MPO to resorufin. Reactions were carried out in 50 μL total volume by adding a 25 μL mixture of 200 pM myeloperoxidase and 40 nM H2O2(Sigma #349887) to 100 nL inhibitor in 100% DMSO in a 384 well Perkin Elmer Optiplate. Enzyme and compound were preincubated for ten minutes at rt.
After the ten minute preincubation, 25 μL of an Amplex Red mixture containing 200 μM Amplex Red and 10 mM H2O2 was added to the plate. Kinetic determinations were carried out immediately on a Perkin Elmer Envision (15 minute kinetic read, Ex: 535 nm, Em: 590 nm).
IC50 values were calculated by determining the slope of the linear portion of the kinetic trace (180-540 secs), and using that calculated slope to determine % inhibition occurring at each concentration of inhibitor using the following equation:
(§1) [formula] where A=minimal Y value (activity level of inhibited sample), B=maximal Y value (activity level of uninhibited sample), C=Log IC50, D=Hill Slope, x=concentration of inhibitor. MPO Chlorination Assay (APF Assay)

[2] = target: T1, myeloperoxidase; test: MPO Chlorination Assay (APF Assay); type: biochemical; conditions: potency range class
Procedure: as §1
MPO chlorination activity was measured in 100 mM KPi (pH 7.4) by utilizing the non-fluorescent reagent Aminophenyl fluorescein (APF, Invitrogen Cat. #A36003). APF is cleaved by (—OCl) to yield the fluorescent compound fluorescein. Reactions were carried out in 50 μL total volume by adding a 25 μL mixture of 200 pM myeloperoxidase and 120 mM NaCl to 100 nL inhibitor in 100% DMSO in a 384 well, non-binding surface clear bottom plate (Corning #3655). Enzyme, inhibitor, and chloride were preincubated for ten minutes at rt.
After the ten minute preincubation, 25 μL of an APF mixture containing […], 120 mM NaCl and 10 μM H2O2 was added to the plate using the internal dispensing system of a Hammatsu FDSS 6000. Kinetic determinations were carried out immediately on the FDSS 6000 (3 minute kinetic read, 1 read every second, ex: 485 nm, em: 535 nm). IC50 values for inhibitors were calculated by taking the slope of the linear portion of the kinetic measurement (20 seconds to ˜80-120 secs). […]
[formula] where A=minimal Y value (activity level of inhibited sample), B=maximal Y value (activity level of uninhibited sample), C=Log IC50, D=Hill Slope, x=concentration of inhibitor.

T1 sequence (P05164 49-745): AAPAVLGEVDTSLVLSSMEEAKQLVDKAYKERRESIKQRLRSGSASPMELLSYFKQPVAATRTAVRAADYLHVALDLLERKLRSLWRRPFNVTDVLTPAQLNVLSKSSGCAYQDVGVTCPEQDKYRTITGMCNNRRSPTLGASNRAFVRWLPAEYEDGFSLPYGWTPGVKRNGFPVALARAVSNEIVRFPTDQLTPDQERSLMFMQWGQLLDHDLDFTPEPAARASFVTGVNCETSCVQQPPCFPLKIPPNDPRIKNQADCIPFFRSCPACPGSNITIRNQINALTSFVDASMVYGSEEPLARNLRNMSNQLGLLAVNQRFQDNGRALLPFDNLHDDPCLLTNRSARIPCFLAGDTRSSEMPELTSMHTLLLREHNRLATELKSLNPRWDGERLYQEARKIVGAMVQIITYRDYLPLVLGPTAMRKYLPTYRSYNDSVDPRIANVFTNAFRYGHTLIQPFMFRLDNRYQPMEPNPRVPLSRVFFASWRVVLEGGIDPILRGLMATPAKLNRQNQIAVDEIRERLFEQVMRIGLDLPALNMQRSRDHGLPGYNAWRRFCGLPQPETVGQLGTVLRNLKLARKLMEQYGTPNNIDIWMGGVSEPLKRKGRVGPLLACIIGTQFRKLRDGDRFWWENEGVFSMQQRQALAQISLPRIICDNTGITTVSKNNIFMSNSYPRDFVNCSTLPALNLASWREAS

## Nc1cc(C(CCNC2CCc3ccccc32)c2cnn(Cc3ccccc3)c2)c2nn[nH]c2n1 (centres unmarked) [Example 17, 7-[1-(1-Benzyl-1H-pyrazol-4-yl)-3-[(2,3-dihydro-1H-inden-1-yl)amino]propyl]-3H-[1,2,3]triazolo[4,5-b]pyridin-5-amine]
[1]
  IC50: 101 to 999 nM
[2]
  IC50: 1 to 100 nM

## Nc1cc(C(CCCc2ccccc2)c2cnn(Cc3ccc4c(c3)CCNC4)c2)c2nn[nH]c2n1 (centres unmarked) [Example 1, 7-(4-phenyl-1-(1-((1,2,3,4-tetrahydroisoquinolin-6-yl)methyl)-1H-pyrazol-4-yl)butyl)-3H-[1,2,3]triazolo[4,5-b]pyridin-5-amine]
[1]
  IC50: 1000 to 10000 nM
[2]
  IC50: 1 to 100 nM

## Nc1cc(C(CCN[C@H]2CC[C@H](c3ccccc3)CC2)c2cn[nH]c2)c2nn[nH]c2n1 (stereo partly drawn) [Example 22, 7-[1-(1H-Pyrazol-4-yl)-3-{[trans-4-phenylcyclohexyl]amino}propyl]-3H-[1,2,3]triazolo[4,5-b]pyridin-5-amine]
[1]
  IC50: 1000 to 10000 nM
[2]
  IC50: 101 to 999 nM

## Nc1cc(C(CCN[C@H]2CC[C@H](c3ccccc3)CC2)c2cnn(C3CCC3(F)F)c2)c2nn[nH]c2n1 (stereo partly drawn) [Example 28, 7-{1-[1-(2,2-Difluorocyclobutyl)-1H-pyrazol-4-yl]-3-{[trans-4-phenylcyclohexyl]amino}propyl}-3H-[1,2,3]triazolo[4,5-b]pyridin-5-amine]
[1]
  IC50: 101 to 999 nM
[2]
  IC50: 1 to 100 nM

## Nc1cc([C@@H](CCN[C@H]2CC[C@H](c3ccccc3)CC2)c2cnn(Cc3cccc(OC(F)F)c3)c2)c2nn[nH]c2n1 [Example 33B, 7(R)-[1-(1-{[3-(Difluoromethoxy)phenyl]methyl}-1H-pyrazol-4-yl)-3-{[trans-4-phenylcyclohexyl]amino}propyl]-3H-[1,2,3]triazolo[4,5-b]pyridin-5-amine]
[1]
  IC50: 1 to 100 nM
[2]
  IC50: 1 to 100 nM

## Nc1cc([C@H](CCN[C@H]2CC[C@H](c3ccccc3)CC2)c2cnn(Cc3cccc(OC(F)F)c3)c2)c2nn[nH]c2n1 [Example 33A, 7(S)-[1-(1-{[3-(Difluoromethoxy)phenyl]methyl}-1H-pyrazol-4-yl)-3-{[trans-4-phenylcyclohexyl]amino}propyl]-3H-[1,2,3]triazolo[4,5-b]pyridin-5-amine]
[1]
  IC50: 1000 to 10000 nM
[2]
  IC50: 101 to 999 nM

## Nc1cc(C(CCC2CCOCC2)c2cnn(Cc3ccc4c(c3)CCNC4)c2)c2nn[nH]c2n1 (centres unmarked) [Example 10, 7-[3-(Oxan-4-yl)-1-[1-(1,2,3,4-tetrahydroisoquinolin-6-ylmethyl)-1H-pyrazol-4-yl]propyl]-3H-[1,2,3]triazolo[4,5-b]pyridin-5-amine]
[1]
  IC50: 101 to 999 nM
[2]
  IC50: 1000 to 10000 nM

## Nc1cc(C(CCCc2ccccc2)c2cnn(Cc3cccc(C4CCNCC4)c3)c2)c2nn[nH]c2n1 (centres unmarked) [Example 13, 7-[4-Phenyl-1-(1-{[3-(piperidin-4-yl)phenyl]methyl}-1H-pyrazol-4-yl)butyl]-3H-[1,2,3]triazolo[4,5-b]pyridin-5-amine]
[1]
  IC50: 101 to 999 nM
[2]
  IC50: 1 to 100 nM

## Nc1cc(C(CCNCc2cccc(CO)c2)c2cnn(Cc3cccc(O)c3)c2)c2nn[nH]c2n1 (centres unmarked) [Example 48]
[1]
  IC50: 1000 to 10000 nM
[2]
  IC50: 101 to 999 nM

## Nc1cc(C(CCN[C@H]2CC[C@H](c3ccccc3)CC2)c2cccnc2)c2nn[nH]c2n1 (stereo partly drawn) [Example 34, 7-[1-(Pyridin-3-yl)-3-{[trans-4-phenylcyclohexyl]amino}propyl]-3H-[1,2,3]triazolo[4,5-b]pyridin-5-amine]
[1]
  IC50: 101 to 999 nM
[2]
  IC50: 1 to 100 nM

— US11059818B2, “Triazolopyridine inhibitors of myeloperoxidase” (BRISTOL-MYERS SQUIBB COMPANY, priority 2016, dated 2021)
